Assay results from PubChem BioAssay AID1963423 (Molecular Pharmacology Branch, DTP, NCI, 2024).
Several values for one entry are separate records, joined by “and”; a condition that tells them apart may be missing. Equal entries are not always repeated. Values belong to the molecule of their own block, whether it stands above or below them.

Test system: 439559-082-T-J2-PDC complex spheroid growth
Test: Anticancer human tumor 439559-082-T-J2-PDC patient-derived colon adenocarcinoma cell line growth inhibition [Asc]
Conditions: for viability, T/C: stronger effect = lower value
Procedure, shortened: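 Complex spheroids combining tumor cells with HUVEC endothelial cells and human MSCs, at 37 degrees C, 5% CO2; agents tested alone or combined, half-log dilutions from at or near clinical Cmax, or 10 microM if Cmax unknown.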

[1] = curve of first compound, second compound 0.03 µM
[2] = curve of first compound, second compound 0.0949 µM
[3] = curve of first compound, second compound 0.3 µM
[4] = curve of first compound, second compound 0.949 µM
[5] = curve of first compound, second compound 3 µM
[6] = second compound 0.03 µM, first compound 0.00316 µM
[7] = second compound 0.03 µM, first compound 0.01 µM
[8] = second compound 0.03 µM, first compound 0.0316 µM
[9] = second compound 0.03 µM, first compound 0.1 µM
[10] = second compound 0.0949 µM, first compound 0.00316 µM
[11] = second compound 0.0949 µM, first compound 0.01 µM
[12] = second compound 0.0949 µM, first compound 0.0316 µM
[13] = second compound 0.0949 µM, first compound 0.1 µM
[14] = second compound 0.3 µM, first compound 0.00316 µM
[15] = second compound 0.3 µM, first compound 0.01 µM
[16] = second compound 0.3 µM, first compound 0.0316 µM
[17] = second compound 0.3 µM, first compound 0.1 µM
[18] = second compound 0.949 µM, first compound 0.00316 µM
[19] = second compound 0.949 µM, first compound 0.01 µM
[20] = second compound 0.949 µM, first compound 0.0316 µM
[21] = second compound 0.949 µM, first compound 0.1 µM
[22] = second compound 3 µM, first compound 0.00316 µM
[23] = second compound 3 µM, first compound 0.01 µM
[24] = second compound 3 µM, first compound 0.0316 µM
[25] = second compound 3 µM, first compound 0.1 µM
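Further: spheroids exposed to agents for 7 days starting day 3 after seeding.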
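Wherever viability, T/C is given: percent of DMSO vehicle control viability with 100% = vehicle.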

IC50 [1]: > 100 nM
IC50 [2]: > 100 nM
IC50 [3]: > 100 nM
IC50 [4]: > 100 nM
IC50 [5]: > 100 nM
Structure (SMILES): Cn1ncnc1[C@H]1c2n[nH]c(=O)c3cc(F)cc(c23)N[C@@H]1c1ccc(F)cc1 + CCN1C(C(=O)NC23CCC(C(=O)O)(CC2)CC3)C(c2cccc(Cl)c2F)C2(C(=O)Nc3cc(Cl)ccc32)C12CCCCC2
viability, T/C (second compound 0.03 µM, first compound 0.000316 µM): 106%
viability, T/C (second compound 0.03 µM, first compound 0.001 µM): 109%
viability, T/C [6]: 103%
viability, T/C [7]: 100%
viability, T/C [8]: 101%
viability, T/C [9]: 95.3%
viability, T/C (second compound 0.0949 µM, first compound 0.000316 µM): 103%
viability, T/C (second compound 0.0949 µM, first compound 0.001 µM): 104%
viability, T/C [10]: 106%
viability, T/C [11]: 83.4%
viability, T/C [12]: 94.6%
viability, T/C [13]: 96.6%
viability, T/C (second compound 0.3 µM, first compound 0.000316 µM): 98.8%
viability, T/C (second compound 0.3 µM, first compound 0.001 µM): 113%
viability, T/C [14]: 109%
viability, T/C [15]: 86.2%
viability, T/C [16]: 96.2%
viability, T/C [17]: 101%
viability, T/C (second compound 0.949 µM, first compound 0.000316 µM): 107%
viability, T/C (second compound 0.949 µM, first compound 0.001 µM): 111%
viability, T/C [18]: 108%
viability, T/C [19]: 99%
viability, T/C [20]: 88.3%
viability, T/C [21]: 103%
viability, T/C (second compound 3 µM, first compound 0.000316 µM): 89%
viability, T/C (second compound 3 µM, first compound 0.001 µM): 94.7%
viability, T/C [22]: 101%
viability, T/C [23]: 86.6%
viability, T/C [24]: 84.4%
viability, T/C [25]: 91.6%

IC50 (curve of first compound, second compound 0.1 µM): 201 nM
IC50 (curve of first compound, second compound 0.316 µM): 188 nM
IC50 (curve of first compound, second compound 1 µM): 141 nM
IC50 (curve of first compound, second compound 3.16 µM): 104 nM
IC50 (curve of first compound, second compound 10 µM): 56.6 nM
Structure (SMILES): O=C(c1ccc(F)c(F)c1Nc1ccc(I)cc1F)N1CC(O)([C@@H]2CCCCN2)C1 + Cc1c(S(C)(=O)=O)c(-c2cc(F)cc(N3CCN(c4ccc(NS(=O)(=O)c5ccc(NC(CCN6CCC(C(=O)OCCCP(=O)(O)O)CC6)CSc6ccccc6)c(S(=O)(=O)C(F)(F)F)c5)cc4)CC3)c2)c(-c2ccc(Cl)cc2)n1C(C)C
viability, T/C (second compound 0.1 µM, first compound 0.00316 µM): 96.7%
viability, T/C (second compound 0.1 µM, first compound 0.01 µM): 105%
viability, T/C (second compound 0.1 µM, first compound 0.0316 µM): 76%
viability, T/C (second compound 0.1 µM, first compound 0.1 µM): 57.5%
viability, T/C (second compound 0.1 µM, first compound 0.316 µM): 47.7%
viability, T/C (second compound 0.1 µM, first compound 1 µM): 16.9%
viability, T/C (second compound 0.316 µM, first compound 0.00316 µM): 96%
viability, T/C (second compound 0.316 µM, first compound 0.01 µM): 103%
viability, T/C (second compound 0.316 µM, first compound 0.0316 µM): 79.8%
viability, T/C (second compound 0.316 µM, first compound 0.1 µM): 59.5%
viability, T/C (second compound 0.316 µM, first compound 0.316 µM): 42.6%
viability, T/C (second compound 0.316 µM, first compound 1 µM): 11.5%
viability, T/C (second compound 1 µM, first compound 0.00316 µM): 88.8%
viability, T/C (second compound 1 µM, first compound 0.01 µM): 96.1%
viability, T/C (second compound 1 µM, first compound 0.0316 µM): 84.6%
viability, T/C (second compound 1 µM, first compound 0.1 µM): 48.5%
viability, T/C (second compound 1 µM, first compound 0.316 µM): 38.2%
viability, T/C (second compound 1 µM, first compound 1 µM): 7.87%
viability, T/C (second compound 3.16 µM, first compound 0.00316 µM): 91.6%
viability, T/C (second compound 3.16 µM, first compound 0.01 µM): 90.9%
viability, T/C (second compound 3.16 µM, first compound 0.0316 µM): 76.3%
viability, T/C (second compound 3.16 µM, first compound 0.1 µM): 45.4%
viability, T/C (second compound 3.16 µM, first compound 0.316 µM): 29.9%
viability, T/C (second compound 3.16 µM, first compound 1 µM): 4.98%
viability, T/C (second compound 10 µM, first compound 0.00316 µM): 76.5%
viability, T/C (second compound 10 µM, first compound 0.01 µM): 68.7%
viability, T/C (second compound 10 µM, first compound 0.0316 µM): 68.3%
viability, T/C (second compound 10 µM, first compound 0.1 µM): 32.6%
viability, T/C (second compound 10 µM, first compound 0.316 µM): 19.1%
viability, T/C (second compound 10 µM, first compound 1 µM): 2.9%

IC50 (curve of compound): > 3000 nM
Structure (SMILES): Cc1nc(N2CCC3(CC2)COC(C)C3N)c(CO)nc1Sc1ccnc(N)c1Cl (configuration not stated)
viability, T/C (compound 0.00949 µM): 89.8% and 104% and 107%
viability, T/C (compound 0.03 µM): 93.7% and 111% and 108%
viability, T/C (compound 0.0949 µM): 102% and 99.4% and 101%
viability, T/C (compound 0.3 µM): 110% and 91.8% and 99.9%
viability, T/C (compound 0.949 µM): 99.8% and 94.1% and 92%
viability, T/C (compound 3 µM): 72.1% and 79.7% and 81.7%

IC50 [1]: > 1000 nM
IC50 [2]: > 1000 nM
IC50 [3]: > 1000 nM
IC50 [4]: > 1000 nM
IC50 [5]: > 1000 nM
Structure (SMILES): COc1c(OCCCN2CCOCC2)ccc2c3n(c(=NC(=O)c4cnc(N)nc4)nc12)CCN3 + CCN1C(C(=O)NC23CCC(C(=O)O)(CC2)CC3)C(c2cccc(Cl)c2F)C2(C(=O)Nc3cc(Cl)ccc32)C12CCCCC2
viability, T/C [6]: 98.5%
viability, T/C [7]: 98.3%
viability, T/C [8]: 94.1%
viability, T/C [9]: 71.7%
viability, T/C (second compound 0.03 µM, first compound 0.316 µM): 63.3%
viability, T/C (second compound 0.03 µM, first compound 1 µM): 57.4%
viability, T/C [10]: 96.4%
viability, T/C [11]: 96.9%
viability, T/C [12]: 90.7%
viability, T/C [13]: 69%
viability, T/C (second compound 0.0949 µM, first compound 0.316 µM): 67.3%
viability, T/C (second compound 0.0949 µM, first compound 1 µM): 60.8%
viability, T/C [14]: 88.9%
viability, T/C [15]: 99.9%
viability, T/C [16]: 89.4%
viability, T/C [17]: 68.7%
viability, T/C (second compound 0.3 µM, first compound 0.316 µM): 59.7%
viability, T/C (second compound 0.3 µM, first compound 1 µM): 60.9%
viability, T/C [18]: 95.8%
viability, T/C [19]: 98.3%
viability, T/C [20]: 96.6%
viability, T/C [21]: 69.5%
viability, T/C (second compound 0.949 µM, first compound 0.316 µM): 60.6%
viability, T/C (second compound 0.949 µM, first compound 1 µM): 63.1%
viability, T/C [22]: 80.1%
viability, T/C [23]: 83.8%
viability, T/C [24]: 93.2%
viability, T/C [25]: 63%
viability, T/C (second compound 3 µM, first compound 0.316 µM): 59%
viability, T/C (second compound 3 µM, first compound 1 µM): 55.2%
